In assay [1] the target is T1, 5-HT1A receptor (Sus scrofa, UniProt A0A4X1UTF5).
T1 construct: from tissue; host or cells: swine hippocampus, membrane fraction
T1 sequence (A0A4X1UTF5 1-422): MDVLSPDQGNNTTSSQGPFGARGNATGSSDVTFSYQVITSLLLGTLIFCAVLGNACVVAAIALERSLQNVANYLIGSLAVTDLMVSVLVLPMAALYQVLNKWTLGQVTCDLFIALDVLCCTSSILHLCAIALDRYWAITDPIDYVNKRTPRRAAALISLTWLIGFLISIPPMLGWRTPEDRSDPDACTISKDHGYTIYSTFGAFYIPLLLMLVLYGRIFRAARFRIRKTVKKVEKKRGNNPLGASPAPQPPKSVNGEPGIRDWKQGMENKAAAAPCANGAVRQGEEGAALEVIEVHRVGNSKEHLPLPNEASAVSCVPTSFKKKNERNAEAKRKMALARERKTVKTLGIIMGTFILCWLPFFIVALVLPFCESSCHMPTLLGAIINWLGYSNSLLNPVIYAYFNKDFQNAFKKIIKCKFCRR
As to the kind of experiment: Test regarding affinity for serotonin 1A receptor ([3H]MPPF binding inhibition). Details: species or system swine. The text has this:
(1) The affinity of a test substance for a 5-HT1A receptor was examined by an inhibition experiment, in which the inhibitory effect of the test substance against the binding of [^3H]-4-(2′-methoxy)phenyl-1-(2′-(N-2″-pyridinyl)-p-fluorobenzamido)ethyl-piperazine (MPPF) that selectively binds to the 5-HT1A receptor in a swine hippocampal membrane fraction was examined. The 5-HT1A receptor that is a G-protein binding receptor becomes a G-protein binding state with addition of MgCl2. In contrast, it becomes a G-protein non-binding state with addition of guanylylimido diphosphate (Gpp(NH)p). […] Thus, both the affinity of a test substance to the receptor that was in a state of not binding to the G-protein and the affinity of the test substance to the receptor that was in a state of binding to the G-protein were obtained. […]
A mixture (0.5 ml) used for incubation comprised an appropriate amount of the membrane fraction, a test substance with a desired concentration, MgCl2 (final concentration: 10 mM) or Gpp(NH)p (final concentration: 1 mm ), [^3H]MPPF (final concentration: 0.5 nM), dimethyl sulfoxide (final concentration: 1% (v/v)), and a 50 mM Tris-Hcl buffer (pH 7.4). […] Thereafter, radioactivity binding to the receptor was measured with a liquid scintillation counter. Non-specific binding was defined as binding detected in the presence of 10 μM WAY-100,635.

Assay [2] has as its target T2, serotonin 1A receptor (Mus musculus, UniProt Q64264).
T2 construct: into the rectum of CD-1 (ICR) male mice (25-45 g); from tissue; host or cells: living CD-1 (ICR) male mice (whole animal)
T2 sequence (Q64264 1-421): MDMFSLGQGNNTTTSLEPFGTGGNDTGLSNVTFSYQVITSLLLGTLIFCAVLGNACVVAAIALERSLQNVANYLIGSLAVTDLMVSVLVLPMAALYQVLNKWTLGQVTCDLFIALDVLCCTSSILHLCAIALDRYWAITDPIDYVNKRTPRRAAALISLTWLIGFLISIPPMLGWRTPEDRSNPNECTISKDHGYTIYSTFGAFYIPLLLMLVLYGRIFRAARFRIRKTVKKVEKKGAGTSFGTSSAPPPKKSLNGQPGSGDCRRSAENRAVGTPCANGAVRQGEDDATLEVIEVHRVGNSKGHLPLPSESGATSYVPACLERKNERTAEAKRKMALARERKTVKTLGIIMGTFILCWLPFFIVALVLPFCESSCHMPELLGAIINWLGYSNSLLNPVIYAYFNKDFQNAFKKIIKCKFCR
As to the kind of experiment: Antagonistic effect on serotonin 1A receptor agonist-induced hypothermia in mouse. It is filed as in vivo. As to conditions: for ED50: sc, 15 minutes before 8-hydroxy-dipropylaminotetralin 0.5 mg/kg sc, inhibition of hypothermia, CD-1 (ICR) male mice, read-out: ED50. How it is done:
(1) A thermistor probe was inserted at a depth of approximately 2 cm into the rectum of CD-1 (ICR) male mice (25-45 g), so as to measure the body temperature thereof. Body temperature is decreased by subcutaneous administration of serotonin 1A receptor agonist (8-hydroxy-dipropylaminotetralin) 0.5 mg/kg. Since a serotonin 1A antagonist inhibits such action, the antagonistic effect of a test substance to a serotonin 1A receptor was evaluated using the inhibitory effect of the hypothermia as an index. A test substance was administered 15 minutes before the administration of the serotonin 1A agonist. A serotonin 1A partial agonist alone decreases the body temperature, depending on the degree of the agonistic action thereof. In addition, it has a weak antagonistic effect on 8-hydroxy-dipropylaminotetralin-induced hypothermia. (2) Results

One may read the ED50 as the midpoint of the dose-response relation.

Each structure is given as a SMILES string.

For the compound `COc1cc2c(cc1CCN1CCC(n3ccc4ccc(C(N)=O)cc43)CC1)N(C)C(=O)OC2` [Compound 39, 1-{1-[2-(6-methoxy-methyl-oxo-1,4-dihydro-2H-benz[d][1,3]oxazin-7-yl)ethyl]piperidin-4-yl}-1H-indole-6-carboxamide], in assay [1] (low affinity IC50 divided by high affinity IC50, 1 or smaller = no intrinsic activity, 2 or greater = intrinsic activity), the L/H ratio turned out to be 0.7. Take `COc1cc2c(cc1CCN1CCC(n3ccc4ccc(C(N)=O)cc43)CC1)N(C)CCC2` [Compound 53, 1-{1-[2-(6-methoxy-1-methyl-1,2,3,4-tetrahydroquinolin-7-yl)ethyl]piperidin-4-yl}-1H-indole-6-carboxamide]: in assay [2], the 50% effective dose (ED50) worked out at 0.3 mg/kg. `COc1ccc2c(c1CCN1CCC(n3ccc4ccc(C(N)=O)cc43)CC1)CCCN2C(C)=O` [Compound 54, 1-{1-[2-(1-acetyl-6-methoxy-1,2,3,4-tetrahydroquinolin-5-yl)ethyl]piperidin-4-yl}-1H-indole-6-carboxamide]: the median effective dose (ED50) in assay [2] came to 0.84 mg/kg. On the same count and under the same terms, the result for `COc1cc2c(cc1CCN1CCC(n3ccc4ccc(C(N)=O)cc43)CC1)N(C)C(=O)CC2` [Compound 57, 1-{1-[2-(6-methoxy-1-methyl-2-oxo-1,2,3,4-tetrahydroquinolin-7-yl)ethyl]piperdin-4-yl}-1H-indole-6-carboxamide] reads 0.1 mg/kg; that for `CNC(=O)c1ccc2ccn(C3CCN(CCc4cc5c(cc4OC)CCC(=O)N5C)CC3)c2c1` [Compound 58, 1-{1-[2-(6-methoxy-1-methyl-2-oxo-1,2,3,4-tetrahydroquinolin-7-yl)ethyl]piperidin-4-yl}-N-methyl-1H-indole-6-carboxamide], 0.53 mg/kg. Same read-out and setting: next, `CCN1C(=O)CCc2cc(OC)c(CCN3CCC(n4ccc5ccc(C(N)=O)cc54)CC3)cc21` [Compound 59, 1-{1-[2-(1-ethyl-6-methoxy-2-oxo-1,2,3,4-tetrahydroquinolin-7-yl)ethyl]piperidin-4-yl}-1H-indole-6-carboxamide]: 0.3 mg/kg; `CCn1c(=O)oc2cc(OC)c(CCN3CCC(n4ccc5ccc(C(N)=O)cc54)CC3)cc21` [Compound 60, 1-{1-[2-(3-ethyl-6-methoxy-2-oxo-2,3-dihydrobenzoxazol-5-yl)ethyl]piperidin-4-yl}-1H-indole-6-carboxamide]: 0.52 mg/kg. Regarding `NC(=O)c1ccc2ccn(C3CCN(CCc4ccc(F)cc4)CC3)c2c1` [Compound A, reference compound], the “affinity for 5-HT1A / receptor binding action (in words)” value in assay [1] was “has affinity”. Also, the “antagonistic effect against the 5-HT1A receptor / pharmacological effect (in words)” value in assay [2] (in vivo) is recorded as “weak”. The 50% effective dose (ED50) in assay [2] was greater than 1 mg/kg.
